The source made the active and inactive calls.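 Rule for the calls: active = compounds giving half or more protection of infected cells from virus-caused growth loss, again on retest; inactive = the rest.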
Tested on: CEM cells HIV-1 protection, formazan growth assay
Assay: NCI AIDS Antiviral Assay
Settings: for IC50: measured here: growth of uninfected CEM cells
Outline: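 Soluble formazan readout of cell growth; CEM cells ± HIV-1; 5 drug concs. ≥50% protection → retest; ≥50% again = moderately active; reproducible 100% = confirmed active.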

Question: With O=C1OCCSCCOCCSCCOC(=O)c2cccc1n2 as the compound, how does the outcome read?
Answer: inactive

Question: What does the source list for O=[N+]([O-])c1cc(/C=N/NS(=O)(=O)c2ccc(F)cc2)c(O)c([N+](=O)[O-])c1?
Answer: EC50: > 646 µM; IC50: 37.2 µM

Question: With Cc1cc(N(CCC#N)CCC#N)ccc1/C(N=Nc1ccc(C(=O)O)cc1)=N\NC(=O)c1cc(Cl)ccc1O as the compound, how does the EC50 read?
Answer: > 200 µM

Question: What about the IC50 of the same compound?
Answer: 112 µM

Question: For O=C(NC/C(Br)=C/Br)Nc1cccc2ccccc12, which EC50 is on record?
Answer: 148 µM

Question: And the IC50?
Answer: > 200 µM

Question: O=C(NCO)NCOCn1c(=O)n(CO)c(=O)n(CO)c1=O was tested. Which EC50 did it give?
Answer: > 407 µM

Question: What about the IC50 of the same compound?
Answer: 70.8 µM

Question: For [O-][n+]1onc2ncccc21, which EC50 is on record?
Answer: > 138 µM

Question: And the IC50?
Answer: 19.5 µM

Question: CC(=C(c1ccccc1)c1ccccc1)N1C(=O)CC(=O)N1C was tested. Which EC50 did it give?
Answer: > 200 µM

Question: And the IC50?
Answer: 120 µM

Question: With CSc1nc2c(n1-c1ccccc1)C(=O)C(OS(=O)(=O)c1ccccc1)C(=O)N2 (stereo not drawn) as the compound, how does the EC50 read?
Answer: > 200 µM

Question: What about the IC50 of the same compound?
Answer: > 200 µM

Question: Which outcome does the source give for COC(=O)C1=C2Nc3ccccc3C23CCN2C(=O)C[C@H](C1)[C@@H]23 (stereo partly drawn) here?
Answer: inactive

Question: For COc1ccc(N2C(=O)c3c4c(c5c([nH]c6ncccc65)c3C2=O)CCC(C(C)(C)C)C4)cc1 (stereo not drawn), which EC50 is on record?
Answer: 191 µM

Question: And the IC50?
Answer: > 200 µM

Question: How did the EC50 turn out when CCOC(=O)C(NC(=O)c1ccccc1)[CH](c1ccc(OC)cc1)[Sn]([c]1ccccc1)([c]1ccccc1)[c]1ccccc1 (stereo not drawn) was run?
Answer: 34.7 µM

Question: What about the IC50 of the same compound?
Answer: 81.3 µM

Question: What does the source list for CC(=O)OC1C=CS(=O)(=O)C1 (stereo not drawn)?
Answer: EC50: > 200 µM; IC50: 15.8 µM

Question: CCCC1(NC(=O)C(F)(F)F)CC(OC)OC2COC(c3ccccc3)OC21 (stereo not drawn) was tested. Which EC50 did it give?
Answer: > 200 µM

Question: What about the IC50 of the same compound?
Answer: > 200 µM

Question: How did the EC50 turn out when CC(C)CCCCCCCCCCCCC(=O)NCC(=O)NC1C(O)C(O)C(Nc2ncnc3nc[nH]c23)OC1C(O)CO (stereo not drawn) was run?
Answer: > 0.417 µM

Question: What about the IC50 of the same compound?
Answer: 0.00224 µM

Question: Which EC50 does the source give for COC(=O)Nc1cn2c(n1)SCC2 here?
Answer: > 200 µM

Question: And the IC50?
Answer: > 200 µM

Question: For COc1ccc(S(=O)(=O)N/N=C/c2cc(I)cc([N+](=O)[O-])c2O)cc1OC, which EC50 is on record?
Answer: > 355 µM

Question: What about the IC50 of the same compound?
Answer: 60.3 µM

Question: Which EC50 does the source give for C=C(Nc1ccc([N+](=O)[O-])cc1[N+](=O)[O-])c1c/c(=N\NC(N)=S)c2ccccc2o1 here?
Answer: > 117 µM

Question: What about the IC50 of the same compound?
Answer: > 117 µM

Question: How did the EC50 turn out when COc1ccc(C(=O)Nc2cc(C(=CCC[C@H]3CC[C@@]4(C)[C@@H](CC[C@@H]5[C@@H]4CC[C@]4(C)[C@@H](C(C)CCCC(C)C)CC[C@@H]54)C3)c3cc(NC(=O)c4ccc(OC)c(C(=O)O)c4)c(OC)c(C(=O)O)c3)cc(C(=O)O)c2OC)cc1C(=O)O (stereo partly drawn) was run?
Answer: 36.3 µM

Question: And the IC50?
Answer: 49 µM

Question: Which results are given for O=C1NN(C2=NNC3(C(=O)N2)c2ccccc2-c2ccccc23)C(c2ccccc2)=N/C1=C/c1ccc(Cl)cc1?
Answer: EC50: > 100 µM; IC50: 70.8 µM

Question: Cc1ccc(S(=O)OC23CC4CC(CC(C4)C2)C3)cc1 (stereo not drawn) was tested. Which outcome did it give?
Answer: inactive

Question: How did the EC50 turn out when CN(C)CCCNC(=O)c1nc(NC(=O)c2nc(NC(=O)c3nc(NC(=O)c4ccc(C(=O)Nc5cn(C)c(C(=O)Nc6cn(C)c(C(=O)Nc7cn(C)c(C(=O)NCCCN(C)C)n7)n6)n5)cc4)cn3C)cn2C)cn1C was run?
Answer: > 50.1 µM

Question: And the IC50?
Answer: > 50.1 µM

Question: With Cc1ccc(CS(=O)(=O)C/N=c2\sc3ccccc3nc2/C=C(\O)c2ccc(Cl)cc2)cc1 as the compound, how does the EC50 read?
Answer: > 200 µM

Question: And the IC50?
Answer: > 200 µM

Question: O=Cc1c2ccccc2n2ccc3c4ccccc4[nH]c3c12 was tested. Which EC50 did it give?
Answer: > 200 µM

Question: And the IC50?
Answer: > 200 µM

Question: How did the EC50 turn out when CCCCn1cnc2c(SSc3ncnc4c3ncn4CCCC)ncnc21 was run?
Answer: > 200 µM

Question: And the IC50?
Answer: 10.7 µM

Question: Which results are given for N#Cc1sc2nc(/C=C3/C=CC=CC3=O)c(O)n2c1N?
Answer: EC50: > 200 µM; IC50: 93.3 µM

Question: How did the EC50 turn out when Cc1cc2oc(C)c(S(=O)(=O)NC(=O)Nc3ccc(Cl)cc3)c(=O)c2c(=O)o1 was run?
Answer: > 200 µM

Question: What about the IC50 of the same compound?
Answer: 107 µM

Question: With O=C1NC2=C(CCCCC/C2=N\O)C12CCCCCC2 as the compound, how does the outcome read?
Answer: inactive

Question: With CC(=O)[O-].Cc1ccnc(NS(=O)(=O)c2ccc(N=Cc3ccccc3[O-])cc2)n1.Cc1ccnc(NS(=O)(=O)c2ccc(N=Cc3ccccc3[O-])cc2)n1.[Cu+2] as the compound, how does the EC50 read?
Answer: > 200 µM

Question: What about the IC50 of the same compound?
Answer: 5.62 µM

Question: With O=S1c2ccc(Cl)cc2CC(SSC2Cc3cc(Cl)ccc3S(=O)c3ccccc32)c2ccccc21 (stereo not drawn) as the compound, how does the EC50 read?
Answer: > 4.68 µM

Question: What about the IC50 of the same compound?
Answer: > 4.68 µM

Question: Which EC50 does the source give for Cn1c(=O)n2n(c1=O)C1(CCO)CCC2(CCO)CC1 here?
Answer: > 331 µM

Question: And the IC50?
Answer: > 331 µM

Question: How did the EC50 turn out when CC1(C)O[C@H]2OC(CO[Si](C)(C)C(C)(C)C)C(N=[N+]=[N-])[C@H]2O1 (stereo partly drawn) was run?
Answer: > 20 µM

Question: What about the IC50 of the same compound?
Answer: > 20 µM

Question: For CCc1c(CN)c(CC)c(CNC2=NCCN2)c(CC)c1CNC1=NCCN1, which EC50 is on record?
Answer: > 200 µM

Question: And the IC50?
Answer: > 200 µM

Question: COc1ccc(S(=O)(=O)c2ccc(C(=O)O)cc2)cc1 was tested. Which EC50 did it give?
Answer: > 200 µM

Question: What about the IC50 of the same compound?
Answer: > 200 µM

Question: For O=C(CCc1ccccc1)NCCc1ccc(O)c(O)c1, which EC50 is on record?
Answer: > 200 µM

Question: And the IC50?
Answer: 14.8 µM

Question: What does the source list for CC(C)(C)c1cc(N=O)cc(C(C)(C)C)c1O?
Answer: EC50: > 200 µM; IC50: 18.6 µM

Question: With COC(=O)C(=O)C(C(=O)C(=O)Nc1cc(C)ccc1C)c1nc2ccc(C(=O)c3ccccc3)cc2[nH]c1=O (stereo not drawn) as the compound, how does the outcome read?
Answer: inactive

Question: With CCNC12CCC(C1)C(C)(C)C2=O (stereo not drawn) as the compound, how does the EC50 read?
Answer: > 200 µM

Question: And the IC50?
Answer: > 200 µM

Question: Which outcome does the source give for COc1cc(/C=C/c2ccc(OC)c(OC)c2)cc(OC2OC(CO)C(O)C(O)C2O)c1 (stereo not drawn) here?
Answer: inactive

Question: With CC1=C(C#N)C(=O)OC1(C)C(CC(=O)c1ccccc1)c1ccccc1 (stereo not drawn) as the compound, how does the EC50 read?
Answer: > 200 µM

Question: What about the IC50 of the same compound?
Answer: 8.32 µM

Question: For O=C1c2c(O)cc(O)cc2C(C2OC(CO)C(O)C(O)C2O)c2cc(CO)cc(O)c21 (stereo not drawn), which EC50 is on record?
Answer: > 200 µM

Question: What about the IC50 of the same compound?
Answer: > 200 µM

Question: For Cc1ccc(S(=O)(=O)Nc2ccccc2C(C)(C)C)cc1, which outcome is on record?
Answer: inactive

Question: How did the EC50 turn out when CCOP(=O)(OCC)/C(C#N)=C/c1cn(C)cn1 was run?
Answer: > 200 µM

Question: And the IC50?
Answer: > 200 µM

Question: With COc1cc2c(cc1OC)CCN=C2 as the compound, how does the outcome read?
Answer: inactive
